Experimental data: article PMC9862751, “Identifying Dopamine D3 Receptor Ligands through Virtual Screening and Exploring the Binding Modes of Hit Compounds” (Molecules, 2023)

Biological target: human D3R (Homo sapiens, UniProt P35462)
Assay: [3H]-spiperone filtration binding assay on membranes from CHO–hDRD3 cells
Details: for inhibition at 10 µM: read-out: Inhibition Rate at 10 µM
Protocol: CHO-K1 cells expressing human D3R (CHO–hDRD3; HD Euroscreen Fast, Brussels, Belgium) were homogenized in 4× v/w buffer (15 mM Tris, 2 mM MgCl2, 0.3 mM EDTA, 1 mM EGTA, pH = 7.4 at 25 °C) with a Dounce tissue grinder and centrifuged at 40,000× g at 4 °C for 25 min. The supernatant was removed, and the pellet was resuspended in 4× v/w buffer and recentrifuged. […] The preparations were then aliquoted and stored at −70 °C [11].
The aliquoted membranes were thawed and washed once in binding buffer (50 mM Tris HCl, 5 mM MgCl2, 5 mM KCl, 1 mM CaCl2, 120 mM NaCl, and 1mM EDTA). […] The incubations were carried out for 120 min at 25 °C in 250 µL in individual wells of a 96-well deep-well plate. […] Non-specific binding was determined in the presence of 10 mM haloperidol. After incubation, the samples were filtered over UniFilter GF/B^TM using PerkinElmer Harvester and washed with 4 × 1 mL ice-cold binding buffer. The plate was dried at 40 °C for 1 h and 40 µL MicroScint scintillation cocktail (PerkinElmer) was added to each well. […] Specific radioligand binding was defined as the difference between total binding and non-specific binding determined in the presence of excess haloperidol. Inhibition percentage (%) = (total binding counts − test compounds binding counts)/(total binding counts—non-specific binding counts) [11].

Chain of human D3R (P35462 whole entry): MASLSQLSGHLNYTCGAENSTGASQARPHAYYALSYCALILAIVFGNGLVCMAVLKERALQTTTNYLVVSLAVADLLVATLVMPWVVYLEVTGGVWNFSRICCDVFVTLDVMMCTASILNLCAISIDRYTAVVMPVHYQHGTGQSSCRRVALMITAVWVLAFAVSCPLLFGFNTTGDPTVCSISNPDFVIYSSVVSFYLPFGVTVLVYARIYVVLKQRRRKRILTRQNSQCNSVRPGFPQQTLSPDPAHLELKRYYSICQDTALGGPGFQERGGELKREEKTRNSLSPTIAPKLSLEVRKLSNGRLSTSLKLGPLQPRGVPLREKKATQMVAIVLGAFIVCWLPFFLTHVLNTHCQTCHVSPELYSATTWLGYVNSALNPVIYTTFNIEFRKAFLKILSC

Row | IC50 | inhibition at 10 µM | Inhibition Rate at 10 µM (10 µM test compound, displacement of [3H]-spiperone) | SMILES
1 | 1.25 µM | 99.3% | – | Cc1ccc(-c2c3c(=O)n(C)c(=O)n(C)c3c3n2C(C)(C)CO[C@H]3c2ccc(C)cc2O)cc1 [Compound D280-0447]
2 | 1.48 µM | 93.6% | – | Cc1nc(Nc2ccc(NC(=O)Nc3ccc4c(c3)OCCO4)cc2)cc(NC2CCCCC2)n1 [Compound D638-0102]
3 | 0.97 µM | 96.9% | – | Cc1ccc(SCc2nc(-c3ccc(C(=O)Nc4ccc5c(c4)OCO5)cc3)oc2C)cc1 [Compound E776-0059]
4 | 1.41 µM | 99.5% | – | Cc1ccc(CNC(=O)c2ccc3c(=O)n(-c4ccc(C)cc4)c(N4CCCC4)nc3c2)cc1 [Compound F072-0905]
5 | – | – | 74.8% | Cc1oc(-c2ccc(C(=O)NCc3ccccc3)cc2)nc1CN1CCc2ccccc21 [Compound G373-0280]
6 | 1.49 µM | 94.8% | – | Cc1cc(N2CCC(C(=O)N[C@@H]3CCCc4ccccc43)CC2)n2nc(-c3ccccc3)cc2n1 [Compound L227-1012]
